Some test systems named below: MALME-3M melanoma; NCI-H23 lung; A498 renal; SW-620 colon; KM12 colon; SNB-75 CNS; SF-295 CNS; HCT-116 colon; SNB-19 CNS.
Common to all, as to test: inhibition of tumour cell growth, NCI panel, 48 h

SMILES strings stand for the structures. Where “and” joins values, the source holds several entries; their conditions need not be identical. Equal values may be shown once.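 The compound was tested at five concentrations on cells cultured in 96-well plates, with a 48-hour exposure period. At the GI50, growth is halved. TGI marks complete inhibition of growth.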

Take `COc1ccc(C2=CN3CCC[C@H]3C=C2c2cc(O)c(OC)c(OC)c2)cc1OC`: the TGI with MALME-3M melanoma is 0.0333 µM; with NCI-H23 lung, 0.0278 µM; in the experiment on A498 renal it was 0.0269 µM and 0.062 µM; in the experiment with SW-620 colon, 0.0578 µM and 0.0206 µM; in the experiment with KM12 colon it was 0.0394 µM; with SNB-75 CNS, 0.00947 µM. Also, the TGI came out at 0.115 µM in the experiment with SF-295 CNS and 0.0108 µM with HCT-116 colon.

On to `O=C1C[C@H](c2ccccc2)C2(C(=O)c3ccccc3C2=O)[C@H](c2ccccc2)C1`, for which the TGI in the experiment on MALME-3M melanoma, with NCI-H23 lung, in the experiment on A498 renal, in the experiment on SNB-19 CNS, in the experiment on KM12 colon and in the experiment on SNB-75 CNS was over 100 µM each time. The TGI in the experiment with SF-295 CNS and in the experiment on HCT-116 colon was over 100 µM each time.

Turning to `CN(C)CC(NC(NCS)C(=O)NCCNc1ccc(NCCNC(=O)C(NCS)NC(CN(C)C)OCCl)c2c1C(=O)c1c(O)ccc(O)c1C2=O)OCCl` (centres undefined), the TGI was 0.111 µM in the experiment on NCI-H23 lung; 2.76 µM with A498 renal; 1.96 µM with SNB-19 CNS; 1.25 µM with SW-620 colon; 1.53 µM and 1.84 µM in the experiment on KM12 colon; 1.77 µM and 0.99 µM in the experiment with SNB-75 CNS. In addition, the results for the TGI in the experiment on SF-295 CNS and in the experiment on HCT-116 colon were 1.39 µM and 1.72 µM, respectively. Also, the GI50 with KM12 colon was 0.211 µM; in the experiment with SNB-75 CNS, 0.0387 µM.

`COC(=O)n1c(CBr)c(Br)c2ccccc21`: the TGI with MALME-3M melanoma was over 100 µM; in the experiment on NCI-H23 lung, 71 µM; in the experiment with SNB-19 CNS, over 100 µM; in the experiment on SW-620 colon, over 100 µM; in the experiment on KM12 colon, over 100 µM; in the experiment with SNB-75 CNS, 47.1 µM. The TGI with SF-295 CNS was 69.9 µM; in the experiment on HCT-116 colon, over 100 µM.

For `COc1cc(CNc2nc3cc(C(F)(F)F)ccc3nc2C)cc(OC)c1OC`, the TGI is 41.8 µM in the experiment on MALME-3M melanoma; 76.1 µM with NCI-H23 lung; over 100 µM in the experiment with SNB-19 CNS; 33.6 µM in the experiment on SW-620 colon; 40 µM with KM12 colon; 57.1 µM in the experiment with SNB-75 CNS. Besides, the TGI turned out to be 46.5 µM with SF-295 CNS and 72.2 µM with HCT-116 colon.

`CC(=O)Nc1ccc(-c2nnc(SCC(=O)Nc3ccccc3C)o2)cc1`: the TGI in the experiment on MALME-3M melanoma, with NCI-H23 lung, with SW-620 colon, with KM12 colon, with SNB-75 CNS and in the experiment with SF-295 CNS was over 100 µM each time. In the experiment on HCT-116 colon, this compound returned a TGI of 29.4 µM.

Consider `CC(C)CCC[C@@H](C)[C@H]1CCC2C3=CCC4C(=O)C=CC(=O)C4C3CC[C@@]21C` (some centres undefined), for which the GI50 in the experiment on MALME-3M melanoma was 0.399 µM; with A498 renal it was 0.301 µM; in the experiment with SNB-19 CNS, 0.543 µM; in the experiment with KM12 colon, 0.338 µM; with SF-295 CNS it was 0.172 µM; with HCT-116 colon it was 0.0551 µM. Also, the TGI with MALME-3M melanoma was 2 µM; in the experiment with A498 renal it was 1.14 µM; in the experiment on SNB-19 CNS, over 100 µM; in the experiment with KM12 colon it was over 100 µM; with SF-295 CNS, 0.576 µM; with HCT-116 colon, 1.03 µM.

On to `CN(c1ccccc1Cl)S(=O)(=O)c1ccccc1[N+](=O)[O-]`, for which the TGI in the experiment with MALME-3M melanoma, in the experiment with NCI-H23 lung, in the experiment on SNB-19 CNS, with SW-620 colon, in the experiment with KM12 colon and in the experiment on SNB-75 CNS was over 100 µM throughout. For the same compound, the TGI in the experiment on SF-295 CNS and in the experiment with HCT-116 colon was over 100 µM in each case.

For the compound `Clc1ncnc2c1ncn2CCCCCCCCCCCCn1cnc2c(Cl)ncnc21`, the TGI in the experiment with NCI-H23 lung stood at 10.8 µM; with A498 renal it was 24.6 µM; with SNB-19 CNS, 27.8 µM; with SW-620 colon, 60.8 µM; with KM12 colon, 28.9 µM; with SF-295 CNS it was 28.8 µM. The TGI in the experiment with HCT-116 colon is 24.8 µM.

As for `Cc1c(F)c(N)c2c(=O)cc(-c3ccc(NC(=O)C(N)CCCN=C(N)N)c(F)c3)oc2c1F` (centres undefined), the TGI in the experiment on MALME-3M melanoma is 62.5 µM; with NCI-H23 lung, over 73.8 µM; with A498 renal it was 0.281 µM; with SNB-19 CNS, over 100 µM; in the experiment with SW-620 colon, over 100 µM; with KM12 colon, 99.7 µM. In addition, the TGI with SF-295 CNS was over 56 µM; in the experiment with HCT-116 colon, over 100 µM.

In the case of `CC(=O)NC1=C(NCc2ccc(Cl)cc2)C(=O)c2ccccc2C1=O`, the TGI in the experiment on MALME-3M melanoma is 16.5 µM; in the experiment on NCI-H23 lung, 13.5 µM; with SNB-19 CNS it was over 50 µM; in the experiment on SW-620 colon, 13.6 µM; in the experiment on KM12 colon it was over 50 µM; in the experiment with SNB-75 CNS it was 15.2 µM. Besides, the TGI worked out at 47 µM in the experiment on SF-295 CNS and 9.35 µM in the experiment on HCT-116 colon.

On to `Cn1ccc(C(=O)NCCCCCNC(=O)c2ccn(C)c(=O)c2O)c(O)c1=O`, for which the TGI in the experiment on MALME-3M melanoma, with NCI-H23 lung, with A498 renal, with SNB-19 CNS, with SW-620 colon and in the experiment with KM12 colon was over 100 µM each time. In addition, in the experiment on HCT-116 colon, the TGI is over 100 µM.

The values above are taken from PubChem BioAssay (NCI).
